Our source for the IC50 values is BindingDB's records for doi:10.3109/14756360903508430 (University of Karachi, 2010).

A word on the IC50: it is the concentration needed to halve the response being measured. A higher IC50 goes with lower potency.

For one experiment, the target named is Cathepsin D (Homo sapiens, UniProt P07339). Description: Fluorescence Resonance Energy Transfer (FRET)-Based Assay. The settings on record: pH 5. The protocol:
(§1) The assay was performed with plasmepsin-II/cathepsin D (1.2 nM) and substrate (malaria FRET-1; 1.0 μM) in 0.1 M sodium acetate buffer pH 5, containing 10% glycerol and 0.01% Tween 20. The hydrazide and hydrazine compounds dissolved in DMSO were added in the reaction mixture before the addition of substrate. The assays were performed with 5% final concentration of DMSO. The enzyme inhibition experiments were performed (in triplicates) in 96-well plate format and readings were obtained on a Perkin Elmer LS55 fluorescence spectrometer, Waltham, Massachusetts, with an excitation and emission wavelengths of 336 and 490 nm respectively.

The target of a further experiment is Plasmepsin II (Plasmodium falciparum (isolate HB3), UniProt P46925). Described as above. Particulars: pH 5. As to the method: as §1
Sequence of Plasmepsin II (P46925 whole entry): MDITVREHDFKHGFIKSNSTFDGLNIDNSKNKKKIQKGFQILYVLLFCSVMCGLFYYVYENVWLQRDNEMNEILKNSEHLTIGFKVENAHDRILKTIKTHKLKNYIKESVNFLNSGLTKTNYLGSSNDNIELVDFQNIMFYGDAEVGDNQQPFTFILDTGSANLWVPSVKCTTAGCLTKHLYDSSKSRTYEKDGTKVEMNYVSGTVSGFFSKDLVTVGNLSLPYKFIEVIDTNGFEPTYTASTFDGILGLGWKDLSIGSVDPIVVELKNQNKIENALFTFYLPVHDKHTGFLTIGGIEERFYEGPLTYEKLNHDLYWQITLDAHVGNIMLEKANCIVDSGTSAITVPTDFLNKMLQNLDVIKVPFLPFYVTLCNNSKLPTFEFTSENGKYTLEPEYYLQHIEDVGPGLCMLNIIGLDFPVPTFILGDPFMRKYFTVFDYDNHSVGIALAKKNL

Sequence of Cathepsin D (P07339 65-162 limits assumed): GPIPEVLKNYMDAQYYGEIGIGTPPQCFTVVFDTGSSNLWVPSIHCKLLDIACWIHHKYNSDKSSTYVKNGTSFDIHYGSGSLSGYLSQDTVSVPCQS
Sequence of Cathepsin D (P07339 169-412 limits assumed): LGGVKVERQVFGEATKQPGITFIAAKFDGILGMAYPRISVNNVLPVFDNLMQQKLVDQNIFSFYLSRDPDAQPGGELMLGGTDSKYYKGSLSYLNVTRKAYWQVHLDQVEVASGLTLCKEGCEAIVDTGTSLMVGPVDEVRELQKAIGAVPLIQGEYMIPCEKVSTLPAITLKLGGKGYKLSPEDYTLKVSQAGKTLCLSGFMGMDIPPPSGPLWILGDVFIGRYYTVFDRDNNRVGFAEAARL

With `COc1ccccc1C(=O)NN`, the half-inhibitory concentration (IC50) against Cathepsin D turned out to be 1500 nM; on Plasmepsin II it was 1650 nM.
For `c1ccc(NNc2ccccc2)cc1` [1,2-Diphenylhydrazine], the concentration for half-maximal inhibition (IC50) on Cathepsin D is 2400 nM; against Plasmepsin II, 1050 nM.
The like results for `c1cc(NNc2ccncc2)ccn1` [1,2-Dipyridinylhydrazine] were, in that order, 2500 nM and 1450 nM.
In the same order, the values of `NNC(=O)c1ccccc1[N+](=O)[O-]` [2-Nitrobenzohydrazide] are 1300 nM and 1000 nM.
`CCCC(=O)NN` [Butanohydrazide]: the IC50 on Cathepsin D was found to be 1400 nM; at Plasmepsin II, 1250 nM.
